Laboratory results from article PMC10552397 (Cell Communication and Signaling : CCS, 2023).
pIC50: −log10 of the molar value. Like-named read-outs stand apart in the source and are kept apart here.

Key:
HeLa GRASP55 KO cells = assay: cells; conditions: Homo sapiens, read-out: IC50 value GRASP55 KO
Protocol: Cell viability was measured using the MTT (3-(4,5-dimethylthiazol-2-yl)-2,5-diphenyltetrazolium bromide) assay. HeLa cells were seeded in 96-well plates with a density of 5*10^3 cells/well. […] After the incubation time, 20 µL of a 5 mg/mL MTT stock solution (ROTH, Karlsruhe, Germany, #4022.3) were added to the cells and they were incubated at 37 °C and 5% CO2 in a humidified atmosphere for 30 min. Upon removal of the MTT-containing medium 100 µL DMSO per well were added for extraction of the formazan. Absorbance was measured at 570 nm and 650 nm (reference) with a microplate reader (SynergyMx, BioTek, Winooski, VT, USA). After subtraction of the reference value, the mean of the absorbance of the solvent control was set as 100% and the relative viability was calculated for each sample.
GRASP55 KO cells were generated using the CRISPR/Cas9 system developed by the Zhang lab [59]. Double-stranded DNA oligos (5´-[sequence]-3´, 3´-[sequence]-5´), encoding guide RNAs (gRNAs) against the target gene were cloned into the Bbsl restriction site of pSpCas9(BB)-2A-GFP (PX458) vector gifted from Feng Zhang (Addgene plasmid #48,138; http://n2t.net/addgene:48138; RRID:Addgene_48138). […]
All IC50 values were calculated using GraphPad Prism 7.01.

GRASP55 = GRASP55 (Homo sapiens, UniProt Q9H8Y8); assay: Thermal proteome profiling temperature range (TPP-TR/RTSA), GRASP55; format: binding; design: endogenous in cells; host or cells: HeLa wt cells; conditions: 100 nM, 6 h
Protocol: (§1) TPP was performed essentially as described, but with major modifications to the TMT labeling sets and statistical data analysis for TPP-TR.
(§2) Adherent cells were washed in the dish once with DPBS and harvested by Trypsin–EDTA (0.25%, Thermo Fisher Scientific, Waltham, MA, USA, #25,200,056) treatment. […]
(§3) After temperature treatment, samples were supplemented with lysis buffer (final concentrations: 0.36 U/µL benzonase, 1.5 mM MgCl2, 1 mM Na3VO4, 10 mM NaF, 2.5 mM Na4P2O7, 0.8% w/v NP-40) for 1 h on ice. […] The total protein concentration of the resulting cell extracts containing the fraction of soluble, non-denatured proteins was determined (Pierce 660 nm Protein Assay, BSA as standard). […] The two (37 °C or 50 °C) x ten (concentrations) x three (replicates) = 60 TPP-CCR samples and two (treatment and control) x ten (temperatures) x three (replicates) = 60 TPP-TR samples were analyzed by LC–MS/MS. GRASP55 was additionally quantified from the TPP-TR samples by immunoblotting as described in the respective section.
(§4) For TPP-CCR, SP3 was performed as described with slight modifications to the original protocol using on average 5 µg total protein per sample and resulting in theoretically 5 µg peptides in 22 µL 50 mM triethylammonium bicarbonate per sample. […] This volume was calculated such that the lowest two temperature samples (36.5 °C and 41.2 °C) contained 10 µg total protein on average. […]

JUN = assay: TPP-TR/RTSA, JUN; format: binding, Homo sapiens; conditions: 100 nM vs DMSO, 6 h, HeLa wt
Protocol: as §1, §2, §3, §4

CCCCCC1=C/C(=C/c2[nH]c(-c3ccc[nH]3)cc2OC)N=C1C [Prodigiosin, prodigiosin]
pIC50 (HeLa GRASP55 KO cells; 24 h): 5.85 | pIC50 (HeLa GRASP55 KO cells; 72 h): 7.08 | mean melting point difference of GRASP55 (TPP-TR) (GRASP55; HeLa wt, vs DMSO): 2.1 °C | effect on GRASP55 abundance (GRASP55; intensities at 36.5 °C): No effect | Mean_dTm (JUN): -0.6723
